Assay results taken from the supplement of paper PMC11208160.

Assay: recombinant barcode read abundance after kanamycin selection (control-corrected) (log10(CPM+1)); higher = more efficient recombination; sequences stand for … in AGTGCAGAGAAAATCGGCCAGTTTTCTCTGCCTGCAGTCCGCATGCCGT…AGATTTATGCAGCGGACTGCCTTTCTCCCAAAGTGATAAACCGGACAGTATCATGGACCGGTTTTCCCGGTAATCCGTATTTGCAAGGTTGGTTTCACT; site = the 11-nt target
In short: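 Recombination efficiency in this pooled E. coli screen uses counts per million of barcodes at recombinant junctions, averaged and corrected against the control. The reported form is log10(CPM+1). Two replicates were plated on chloramphenicol/ampicillin LB agar as control and two on chloramphenicol/ampicillin/kanamycin with 0.1 mM IPTG.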
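Also: IS621 recombinase and bridge RNA in Escherichia coli cells.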

Sequence	recombinant barcode read abundance (log10)
TCCAGTCCTTGGGTTCTAACCTGTTGCTG (site AGCAGTCCTCA)	0.0888
TCCAGTCCTTGGGTTCTAACCTGTTGCTG (site TCCAGTCCTCA)	0.285
TCCCAAGCTTGGGTTCTAACCTGTTGCTA (site TCCAAAGCTTA)	0.589
TCCCAAGCTTGGGTTCTAACCTGTTGCTA (site TCCCAAGCTTA)	1.32
TCCCAAGCTTGGGTTCTAACCTGTTGCTA (site TCCGAAGCTTA)	0.0505
TCCCAAGCTTGGGTTCTAACCTGTTGCTA (site TCCTAAGCTTA)	0.141
TCCCGACCTTGGGTTCTAACCTGTTGCCT (site TCCCGAACTAG)	0.135
TCCCGACCTTGGGTTCTAACCTGTTGCCT (site TCCCGACCTAG)	1.72
TCCCGACCTTGGGTTCTAACCTGTTGCCT (site TCCCGAGCTAG)	0.107
TCCCGACCTTGGGTTCTAACCTGTTGCCT (site TCCCGATCTAG)	0.0793
TCCCGCCCTTGGGTTCTAACCTGTTGCCT (site GCACGCCCTAG)	0.0125
TCCCGCCCTTGGGTTCTAACCTGTTGCCT (site TCCCGCCCTAG)	0.464
TCCCGGACTTGGGTTCTAACCTGTTGCCT (site TCACGGACTAG)	0.212
TCCCGGACTTGGGTTCTAACCTGTTGCCT (site TCCCGGACTAG)	0.892
TCCCGGACTTGGGTTCTAACCTGTTGCCT (site TCGCGGACTAG)	0
TCCCGGACTTGGGTTCTAACCTGTTGCCT (site TCTCGGACTAG)	0.1
TCCGAAGCTTGGGTTCTAACCTGTTGCTA (site TCCAAAGCTTA)	0.0181
TCCGAAGCTTGGGTTCTAACCTGTTGCTA (site TCCCAAGCTTA)	0.264
TCCGAAGCTTGGGTTCTAACCTGTTGCTA (site TCCGAAGCTTA)	0.29
TCCGAAGCTTGGGTTCTAACCTGTTGCTA (site TCCTAAGCTTA)	0.0103
TCCGAGACTTGGGTTCTAACCTGTTGCCT (site TCCGAGACTAG)	1.4
TCCGAGACTTGGGTTCTAACCTGTTGCCT (site TCCGAGACTCG)	0.048

Sequence	recombinant barcode read abundance (log10)
TCCGAGACTTGGGTTCTAACCTGTTGCCT (site TCCGAGACTGG)	0.267
TCCGAGACTTGGGTTCTAACCTGTTGCCT (site TCCGAGACTTG)	0.157
TCCGGAGCTTGGGTTCTAACCTGTTGCCG (site GTGAACCCTTT)	0.0406
TCCGGAGCTTGGGTTCTAACCTGTTGCCG (site TCCGGAGCTCG)	0.652
TCCGGTTCTTGGGTTCTAACCTGTTGCCT (site ACGGGTTCTAG)	0.0897
TCCGGTTCTTGGGTTCTAACCTGTTGCCT (site TCCGGTTCTAG)	0.965
TCCGTGGCTTGGGTTCTAACCTGTTGCCT (site TCCGTGACTAG)	0.121
TCCGTGGCTTGGGTTCTAACCTGTTGCCT (site TCCGTGCCTAG)	0.261
TCCGTGGCTTGGGTTCTAACCTGTTGCCT (site TCCGTGGCTAG)	0.916
TCCGTGGCTTGGGTTCTAACCTGTTGCCT (site TCCGTGTCTAG)	0.244
TCCGTGTCTTGGGTTCTAACCTGTTGCCT (site TCCGTGACTAG)	0.0308
TCCGTGTCTTGGGTTCTAACCTGTTGCCT (site TCCGTGCCTAG)	0.241
TCCGTGTCTTGGGTTCTAACCTGTTGCCT (site TCCGTGGCTAG)	0.0597
TCCGTGTCTTGGGTTCTAACCTGTTGCCT (site TCCGTGTCTAG)	2.24
TCCTAGTCTTGGGTTCTAACCTGTTGCAG (site GGTCCTCCTTC)	0.0984
TCCTAGTCTTGGGTTCTAACCTGTTGCAG (site TCCTAGTCTCT)	0.392
TCCTATCCTTGGGTTCTAACCTGTTGCGT (site TCCCATCCTAC)	0.9
TCCTATCCTTGGGTTCTAACCTGTTGCGT (site TCCTATCCTAC)	0.623
TCCTGAGCTTGGGTTCTAACCTGTTGCTG (site TCCTGAGCTCA)	0.405
TCCTGAGCTTGGGTTCTAACCTGTTGCTG (site TCCTTAGCTCG)	0.0103
TCCTTCACTTGGGTTCTAACCTGTTGCCT (site TCCTTCACTAG)	0.285
TCCTTCACTTGGGTTCTAACCTGTTGCCT (site TCGTTCGCTAG)	0.0665

Sequence	recombinant barcode read abundance (log10)
TCGAACTCTTGGGTTCTAACCTGTTGCTT (site TCGAACTCTAA)	0.339
TCGAACTCTTGGGTTCTAACCTGTTGCTT (site TCGCGCTCTAA)	0.0841
TCGAAGTCTTGGGTTCTAACCTGTTGCTA (site AGATCTCCTAC)	0.0769
TCGAAGTCTTGGGTTCTAACCTGTTGCTA (site TCGAAGTCTTA)	0.272
TCGAGGCCTTGGGTTCTAACCTGTTGCTA (site CATCCATCTAT)	0.162
TCGAGGCCTTGGGTTCTAACCTGTTGCTA (site TCGAGGCCTTA)	0.0602
TCGAGTCCTTGGGTTCTAACCTGTTGCGG (site TCGAGTCCTCC)	1.08
TCGAGTCCTTGGGTTCTAACCTGTTGCGG (site TTGAGGCCTCC)	0
TCGAGTGCTTGGGTTCTAACCTGTTGCAG (site CTACTATCTAC)	0.0294
TCGAGTGCTTGGGTTCTAACCTGTTGCAG (site TCGAGTGCTCT)	0.263
TCGATCCCTTGGGTTCTAACCTGTTGCCT (site TCAATCCCTAG)	0.194
TCGATCCCTTGGGTTCTAACCTGTTGCCT (site TCCATCCCTAG)	0.144
TCGATCCCTTGGGTTCTAACCTGTTGCCT (site TCGATCCCTAG)	0.577
TCGATCCCTTGGGTTCTAACCTGTTGCCT (site TCTATCCCTAG)	0.0661
TCGATTACTTGGGTTCTAACCTGTTGCCT (site TCGATCACTAG)	0.269
TCGATTACTTGGGTTCTAACCTGTTGCCT (site TCGATTACTAG)	0.123
TCGCACACTTGGGTTCTAACCTGTTGCCT (site ACGCACACTAG)	0.276
TCGCACACTTGGGTTCTAACCTGTTGCCT (site CCGCACACTAG)	0.324
TCGCACACTTGGGTTCTAACCTGTTGCCT (site GCGCACACTAG)	0.814
TCGCACACTTGGGTTCTAACCTGTTGCCT (site TCGCACACTAG)	0.622
TCGCAGACTTGGGTTCTAACCTGTTGCAC (site TCGCAGACTGT)	0.0284
TCGCAGACTTGGGTTCTAACCTGTTGCAC (site TGGCCGACTGT)	0.119

Sequence	recombinant barcode read abundance (log10)
TCGCCTACTTGGGTTCTAACCTGTTGCCG (site TCCCCGACTCG)	0.255
TCGCCTACTTGGGTTCTAACCTGTTGCCG (site TCGCCTACTCG)	0.19
TCGCGCTCTTGGGTTCTAACCTGTTGCTT (site TCGAACTCTAA)	0.233
TCGCGCTCTTGGGTTCTAACCTGTTGCTT (site TCGCGCTCTAA)	0.419
TCGCTACCTTGGGTTCTAACCTGTTGCCT (site TCGCTACCTAG)	0.109
TCGCTACCTTGGGTTCTAACCTGTTGCCT (site TGACTACCTAG)	0.157
TCGGAATCTTGGGTTCTAACCTGTTGCCT (site GCGGAATCTAG)	0
TCGGAATCTTGGGTTCTAACCTGTTGCCT (site TCGGAATCTAG)	0.543
TCGGAGTCTTGGGTTCTAACCTGTTGCTT (site TCGGAGTCTAA)	1.87
TCGGAGTCTTGGGTTCTAACCTGTTGCTT (site TCGGAGTCTAC)	0.501
TCGGAGTCTTGGGTTCTAACCTGTTGCTT (site TCGGAGTCTAG)	1.17
TCGGAGTCTTGGGTTCTAACCTGTTGCTT (site TCGGAGTCTAT)	1.39
TCGGATGCTTGGGTTCTAACCTGTTGCAT (site GTTTCGACTTA)	0.272
TCGGATGCTTGGGTTCTAACCTGTTGCAT (site TCGGATGCTAT)	0.417
TCGGCTCCTTGGGTTCTAACCTGTTGCCT (site TCGGCTCCTAG)	0.712
TCGGCTCCTTGGGTTCTAACCTGTTGCCT (site TTGGCGCCTAG)	0.149
TCGGGGTCTTGGGTTCTAACCTGTTGCCT (site ACGGGGTCTAG)	1.23
TCGGGGTCTTGGGTTCTAACCTGTTGCCT (site CCGGGGTCTAG)	0.543
TCGGGGTCTTGGGTTCTAACCTGTTGCCT (site GCGGGGTCTAG)	0.0776
TCGGGGTCTTGGGTTCTAACCTGTTGCCT (site TCGGGGTCTAG)	1.27
